Results on 7 compounds are retold here after publication PMC12811997 (Chemmedchem, 2025).

≈ marks a conversion by molar mass, not a printed value. Like-named read-outs stand apart in the source and are kept apart here.

In series [1] the test system is SARS‐CoV‐2. The series is described as follows: microbe, parasite or virus in culture. It counts as cell-based. The settings on record: Calu‐3 cells infected with SARS‐CoV‐2, concentration required to reduce viral cytopathic effect by 50%, read-out: EC50. (In general: Cytopathic effects are the visible damage that an infection or toxin causes in cultured cells.)
In series [2] the target is T1, SARS‐CoV‐2 RdRp complex (nsp12, nsp7, nsp8) (Severe acute respiratory syndrome coronavirus 2, UniProt P0DTD1). The experiment in a line: biochemical. It counts as biochemical. The settings on record: for remaining activity at 10 µM: read-out: RA ± SD (residual activity of RdRp), at 10 μM concentration of screened compounds.
The test system of series [3] is Calu‐3 cells. The settings on record: read-out: CC50 ± SE, concentration required to reduce cell viability by 50%.
Description: (§1) Cytotoxicity was evaluated by incubating the same two‐fold serial dilutions of each compound with Calu‐3 cells as above but without the virus. Following 3 days of incubation at 37 °C in 5% CO2, the cell viability was determined by the addition of XTT solution as above. The compound cytotoxic concentrations resulting in a 50% reduction of absorbance (CC50) were calculated from plots of the percentage of absorbance versus log10 of drug concentration as above.
Series [4] deals with T1, SARS‐CoV‐2 RdRp complex (nsp12, nsp7, nsp8). The arrangement: method as in PMID 39140451. The settings on record: at 10 μM concentration of screened compound; ref [10]; cited from earlier work.
A short description of series [5]: Chemical stability in aqueous solution. It counts as physicochemical.
Series [6] is described as follows: Kinetic solubility. The settings on record: for solubility kinetic: kinetic from dmso stock.
A short description of series [7]: in vitro. The settings on record: human.
Description: as §1
The mark [8] stands for this setting: Severe acute respiratory syndrome coronavirus 2.
[9] abbreviates: AUC with compound / AUC of noninhibited reaction.

“Ethyl 1‐(4‐(3‐(3,5‐Dichlorophenyl)Ureido)‐2‐(Trifluoromethyl)Benzyl)Piperidine‐4‐Carboxylate Hydrochloride [Compound 67]”: the EC50 in series [1] was greater than 9 µM. For the same compound, the “RA ± SD (residual activity of RdRp)” value in series [2] (at 10 μM concentration of screened compounds, AUC with compound / AUC of noninhibited reaction) was determined as 51 ± 11%. Moreover, in series [3], the CC50 is 9 ± 0.38 µM.
Regarding `O=C(Nc1cccc(C(F)(F)F)c1)Nc1nc2cc(Cl)c(Cl)cc2[nH]1` [Compound 3], the “RA (residual activity of RdRp)” value in series [4] is given as 49 ± 6%.
As to `O=C(Nc1cc(Cl)cc(Cl)c1)Nc1nc2ccc(C(F)(F)F)cc2[nH]1` [Compound 4], the “RA (residual activity of RdRp)” value in series [4] is 29 ± 2%.
As for `O=C(Nc1cc(Cl)cc(Cl)c1)Nc1ccc(CN2CCOC(=O)C2)c(C(F)(F)F)c1` [Compound 64, 1‐(3,5‐Dichlorophenyl)‐3‐(4‐((2‐Oxomorpholino)Methyl)‐3‐(Trifluoromethyl)Phenyl)Urea], the EC50 in series [1] (setting [8]) is greater than 38 µM. Moreover, the remaining activity at 10 µM in series [2] (setting [9]) is 39 ± 12%. Besides, the chemical stability result in series [5] was “chemically unstable and underwent rapid hydrolysis in aqueous solution”. For the same compound, the kinetic solubility in series [6] was 21 ± 2 µM (≈ 9.71 µg/mL). In addition, the “increase in kinetic solubility compared with compound 39” value in series [6] (relative to compound 39) stood at 5 fold. In addition, the CC50 at 3 days in series [7] stood at 38 ± 8.2 µM.
`FC(F)(F)c1ccc2nc(-c3nc4cc(Cl)c(Cl)cc4[nH]3)[nH]c2c1` [Compound 2]: the “RA (residual activity of RdRp)” value in series [4] was 43 ± 6%.
Turning to `O=C(Nc1cnc(C(F)(F)F)nc1)Nc1cc(Cl)cc(Cl)c1` [Compound 18, 1‐(3,5‐Dichlorophenyl)‐3‐(2‐(Trifluoromethyl)Pyrimid‐5‐Yl)Urea], in series [1] (setting [8]), the EC50 is greater than 1.1 µM. Further, the “effect in combination with remdesivir” value in series [2] is listed as “potentiates the effect of remdesivir”. In series [2] (setting [9]), the remaining activity at 10 µM was found to be 42 ± 10%. Besides, the mode of inhibition entry in series [2] (versus ATP, enzymatic study) is reported as “competitive inhibitor of ATP”. Besides, in series [6] (as restated in Conclusions), the kinetic solubility is 27 µM/L. In addition, the kinetic solubility in series [6] was 27 ± 6 µM (≈ 9.48 µg/mL). Further, the CC50 at 3 days in series [7] was 1.1 ± 0.11 µM.
On to `O=C(Nc1cc(Cl)cc(Cl)c1)Nc1cccc(C(F)(F)F)c1` [Compound 1, 1‐(3,5‐dichlorophenyl)‐3‐(3‐(trifluoromethyl)phenyl)urea], for which the “RA (residual activity of RdRp)” value in series [4] is 45%.

What is called EC50 is the midpoint of the concentration-response curve. The term kinetic solubility denotes solubility judged after dilution from a stock solution rather than from solid.
